{"source": "patent US9119821B2", "about": "“Use of methionine sulfoximine to treat acute liver failure and other diseases caused by an inflammatory cytokine response” (priority 2010, dated 2015)", "key": {"[1]": {"target": "γ-glutamylcysteine synthetase (GGCS) (Mus musculus, UniProt P97494)", "sequence (P97494 whole entry)": "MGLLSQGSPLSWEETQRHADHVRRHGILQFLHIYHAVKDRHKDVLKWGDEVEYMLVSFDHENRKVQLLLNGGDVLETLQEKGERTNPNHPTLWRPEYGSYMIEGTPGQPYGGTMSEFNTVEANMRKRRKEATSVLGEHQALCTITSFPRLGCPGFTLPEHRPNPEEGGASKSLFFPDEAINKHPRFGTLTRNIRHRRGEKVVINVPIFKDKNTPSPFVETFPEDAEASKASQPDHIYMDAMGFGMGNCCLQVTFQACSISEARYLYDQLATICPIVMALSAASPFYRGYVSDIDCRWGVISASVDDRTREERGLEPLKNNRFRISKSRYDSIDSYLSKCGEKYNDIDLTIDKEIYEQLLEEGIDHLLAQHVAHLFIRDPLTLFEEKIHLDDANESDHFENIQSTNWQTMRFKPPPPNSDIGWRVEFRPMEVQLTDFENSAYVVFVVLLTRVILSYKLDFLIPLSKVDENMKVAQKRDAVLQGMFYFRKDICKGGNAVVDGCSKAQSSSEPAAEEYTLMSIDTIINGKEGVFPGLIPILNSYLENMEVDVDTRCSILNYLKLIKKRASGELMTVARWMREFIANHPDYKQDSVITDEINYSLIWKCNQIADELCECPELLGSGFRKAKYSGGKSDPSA", "sequence (O09172 whole entry partner)": "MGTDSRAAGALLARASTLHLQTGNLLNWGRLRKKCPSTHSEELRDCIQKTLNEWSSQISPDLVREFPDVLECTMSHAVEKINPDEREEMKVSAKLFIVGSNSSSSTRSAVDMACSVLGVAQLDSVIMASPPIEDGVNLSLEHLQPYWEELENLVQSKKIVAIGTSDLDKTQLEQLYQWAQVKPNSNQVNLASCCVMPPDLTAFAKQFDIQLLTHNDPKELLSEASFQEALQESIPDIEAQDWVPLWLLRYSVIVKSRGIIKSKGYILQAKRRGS", "settings": "liver extracts from LPS/D-GalN treated mice; 50 mg/kg; data not shown", "experimental": "(§1) Tissue and plasma were collected from male mice, which were divided into two groups. One group was injected with saline three hours prior to LPS/D-GalN injections. The second group was given MSO three hours prior to being injected with LPS/D-GalN. Control mice (t=0) were treated with MSO or saline for 3 hours and then euthanized (not exposed to LPS/D-GalN). After LPS/D-GalN injection at time zero, tissue and plasma samples were collected at one-hour time intervals from 1 to 5 hours.\nTo analyze enzyme activities liver homogenates were prepared from liver tissue excised and immediately homogenized in ice-cold buffer consisting of 250 mM sucrose, 10 mM Tris and 0.1 mM EGTA with protease inhibitor cocktail (Sigma #P8340). The homogenized tissue was centrifuged at 2375×g for 5 min. […]\nGlutamine synthetase was assayed as described by Meister, A. Glutamine synthetase from mammalian tissues. […] The reaction with the substrates glutamine and hydroxylamine was stopped using ferric chloride stop solution (0.37 M FeCl3, 0.67 M HCl, 0.20 M TCA) and the colorimetric product formed—γ-glutamyl hydroxamate—was measured at 535 nm. The absorbance values were converted to activities by comparison to a standard curve of pure glutamyl hydroxamate (a generous gift from Arthur J. Cooper, Department of Biochemistry and Molecular Biology, New York Medical College)."}, "[2]": {"tested_on": "CD1 mice injected with Jo2 antibody", "settings": "mouse, in vivo", "experimental": "Animals were divided into two groups. Group one animals consisted of both male and female mice injected with LPS and D-GalN to induce hepatic failure. Survival was monitored post LPS/D-GalN administration and the time of injection was considered to be zero hour (t=0). Group two animals consisted of mice injected with MSO three hours prior to LPS and D-GalN administration. […] MSO (50 mg/kg body weight, Sigma #M5379) was also prepared in saline and administered IP. For analysis of the effect of MSO treatment on the cell death pathway activated by the Fas ligand, mice were pre-treated with MSO as described above, and at time zero were injected with Jo2 antibody ([…]).\nAnimals were monitored continuously post LPS/D-GalN or Jo2 administration. […] The time of death was recorded as hours after LPS/D-GalN injection. Fisher's exact test was used to determine two-tailed p values for the statistical between the treated and untreated groups."}, "[3]": {"tested_on": "40 different mouse cytokines", "experimental": "as §1\nFor experiments analyzing plasma cytokines, the male mice from the groups described above were anesthetized using Avertin (solution of 15.5 mis of tert-amyl alcohol—Sigma #240486 and 25 g of 2-2-2 tribromoethanol—Sigma #T48402) and blood was collected by cardiac puncture. Plasma was obtained by transferring blood to plasma separator tubes containing lithium heparin (BD Microtainer tubes). Plasma samples were immediately frozen on dry ice and stored at −80° C.\nMouse cytokine array kits (Proteome Profiler Arrays—cat #ARY006) were obtained from R&D Systems and used according to the manufacturer's guidelines. Each array, which consisted of a nitrocellulose membrane spotted with 40 different mouse cytokines, was tested with two hundred microliters of plasma from one animal. Each condition was duplicated—two mice for each group. Control blots were from plasma collected from two untreated mice (not injected with LPS/D-GalN and/or MSO). For untreated and MSO-treated groups, plasma was collected at either 1 hour or 3 hours after LPS/D-GalN administration. The blots were developed using the Immun-Star WesternC Kit (BIO-RAD cat #170-5070) on a BIO-RAD imager. The corresponding Quantity One software of the BIO-RAD imager was used to quantify the signal obtained on the blots."}, "MLP 29 cells": {"tested_on": "MLP 29 cells", "assay": "Flow cytometry of apoptosis induced by TNF-α plus actinomycin D", "assay_type": "cell-based, mouse", "quoted_text": "Output of multiparametric FACS analyses. Mouse liver progenitor cells, MLP 29, are incubated for one hour with either no addition (first lane, FIG. 3C(a)), 9 mM MSO (second lane, FIG. 3C(b)), or 9 mM BSO (third lane, FIG. 3C(c)), then exposed for 10 hours to either no addition—(BAS, first column), TNF-α plus actinomycin D (second column), or actinomycin D alone (third column). Viable cells (V) are delimited by the quadrant. Apoptotic cells display mitochondrial depolarization (reduced TMRM staining) and/or expose phosphatidylserine on their surface (increased Annexin V-FITC staining). Propidium iodide-positive, i.e. dead cells (PI), are evaluated on a PI vs TMRM diagram (not shown); these cells are excluded from the reported plots, but the percentage of propidium iodide positive (i.e. dead) cells is shown in each box (PI), as is the percentage of viable cells (V);\nSamples were analyzed on a FACSCalibur flow cytometer (Becton Dickinson, San Diego, Calif.). Data acquisition was performed using CellQuest software and data analysis with WinMD1 software. Each experiment was repeated at least four times."}, "peritoneal macrophages": {"tested_on": "peritoneal macrophages", "settings": "for TNF-α in culture supernatant, average ELISA value: four hours after LPS, LPS control 527", "experimental": "Peritoneal macrophages were isolated from the abdomens of CD-1 mice, and 2×10^4 cells were added to each well of a 6-well cell culture plate. The cells were incubated in RPMI—1640 (with 2.05 mM glutamine) with 5% fetal calf serum and 1% penicillin/streptomycin (all solutions were from Hyclone) for 4 hours. The medium was then changed to remove any non-adherent cells, and the cells were again incubated in a 5% CO2 incubator for 16 hours. In each plate, one well was a negative control (no treatment), one well was a MSO control (9 mM) and one well was a LPS control (1 μg/ml LPS). The other three wells were treated with 9 mM MSO and 1 μg/ml LPS. One well was treated with MSO for 3 hours, and LPS was then added. In another well, LPS and MSO were added at the same time. Time of LPS addition was considered time zero. Four hours after LPS addition the cell culture medium was collected and 50 μL of the medium was mixed with 50 μl of blocking buffer and used for the TNF-α ELISA assay.\nMacrophages coordinate the early phases of LPS-induced inflammatory response, through the synthesis of TNF-α and other cytokines. In vitro experiments were conducted to directly test if MSO inhibits TNF-α production on LPS-stimulated macrophages obtained from mouse peritoneum. Macrophages were triggered with LPS with or without MSO, wherein the MSO was added either three hours before, one hour after, or at the same time as LPS. Four hours after LPS addition, TNF-α in the culture supernatant was quantitated by ELISA, as described in Methods."}, "[4]": {"settings": "one hour after LPS/D-GalN, versus LPS/D-GalN alone"}, "[5]": {"settings": "three hours after LPS/D-GalN, same reduction in LPS/D-GalN animals without MSO"}}, "note": "Like-named read-outs stand apart in the source and are kept apart here.", "data": [{"smiles": "CS(=N)(=O)CC[C@H](N)C(=O)O", "note": "(stereo partly shown) [MSO, methionine sulfoximine]", "values": [{"measurement": "GGCS activity versus saline pre-treated mice", "setting": "[1]", "value": "same GGCS activities as extracts from mice pre-treated with saline"}, {"measurement": "effect on survival after Fas pathway induction", "setting": "[2]", "value": "no effect on survival"}, {"measurement": "reduction of IL-6 in plasma", "setting": "[3]; [4]", "value": "> 50", "unit": "%"}, {"measurement": "reduction of TNF-α in plasma", "setting": "[3]; [4]", "value": "> 50", "unit": "%"}, {"measurement": "I-TAC in plasma", "setting": "[3]; three hours after LPS/D-GalN", "value": "not detected"}, {"measurement": "JE in plasma", "setting": "[3]; three hours after LPS/D-GalN", "value": "either reduced or not detected"}, {"measurement": "KC values", "setting": "[3]; three hours after LPS/D-GalN", "value": "same as in LPS/D-GalN animals"}, {"measurement": "M-CSF values", "setting": "[3]; three hours after LPS/D-GalN", "value": "same for all three groups"}, {"measurement": "MCP-5 in plasma", "setting": "[3]; three hours after LPS/D-GalN", "value": "increased"}, {"measurement": "MIG in plasma", "setting": "[3]; three hours after LPS/D-GalN", "value": "not detected"}, {"measurement": "MIP-1a in plasma", "setting": "[3]; three hours after LPS/D-GalN", "value": "either reduced or not detected"}, {"measurement": "MIP-1b in plasma", "setting": "[3]; three hours after LPS/D-GalN", "value": "either reduced or not detected"}, {"measurement": "MIP-2 in plasma", "setting": "[3]; three hours after LPS/D-GalN", "value": "increased"}, {"measurement": "RANTES in plasma", "setting": "[3]; three hours after LPS/D-GalN", "value": "either reduced or not detected"}, {"measurement": "TIMP-1 values", "setting": "[3]; three hours after LPS/D-GalN", "value": "reduced to approximately control values"}, {"measurement": "TNF-α induction by LPS/D-GalN", "setting": "[3]; three hours after LPS/D-GalN", "value": "abrogated"}, {"measurement": "induction of IFN-γ by LPS/D-GalN", "setting": "[3]; three hours after LPS/D-GalN", "value": "abolished"}, {"measurement": "induction of IL-1ra by LPS/D-GalN", "setting": "[3]; three hours after LPS/D-GalN", "value": "abolished"}, {"measurement": "induction of IL-6 by LPS/D-GalN", "setting": "[3]; three hours after LPS/D-GalN", "value": "abolished"}, {"measurement": "induction of IL-16 by LPS/D-GalN", "setting": "[3]; three hours after LPS/D-GalN", "value": "abolished"}, {"measurement": "induction of IL-23 by LPS/D-GalN", "setting": "[3]; three hours after LPS/D-GalN", "value": "abolished"}, {"measurement": "reduction of IL-1a level", "setting": "[3]; three hours after LPS/D-GalN", "value": "more than 50%"}, {"measurement": "reduction of IP-10", "setting": "[3]; three hours after LPS/D-GalN", "value": "more than 50%"}, {"measurement": "number of elevated cytokines reduced by pretreatment", "setting": "[3]; three hours after LPS/D-GalN, 22 of the 40 cytokines elevated", "value": 20}, {"measurement": "reduction in C5a", "setting": "[3]; [5]", "value": "10-20%"}, {"measurement": "reduction in sICAM", "setting": "[3]; [5]", "value": "10-20%"}, {"measurement": "rescue of cells from apoptosis induced by TNF-α", "setting": "MLP 29 cells", "value": "neither MSO nor BSO could rescue cells"}, {"measurement": "TNF-α in culture supernatant, average ELISA value", "setting": "peritoneal macrophages; 9 mM MSO added at the same time as LPS (1 μg/ml)", "value": 442, "unit": "pg/50 μL"}, {"measurement": "TNF-α in culture supernatant, average ELISA value", "setting": "peritoneal macrophages; 9 mM MSO added one hour after LPS (1 μg/ml)", "value": 430, "unit": "pg/50 μL"}, {"measurement": "TNF-α in culture supernatant, average ELISA value", "setting": "peritoneal macrophages; 9 mM MSO added three hours before LPS (1 μg/ml), 2 mM glutamine", "value": 393, "unit": "pg/50 μL"}, {"measurement": "average reductions in TNF-α", "setting": "peritoneal macrophages; 9 mM MSO, depending upon the time of addition", "value": "16-25%"}]}]}
